For one series, the system named is SKBR3 cells. Description: MTT assay, cytotoxic effect on SKBR3. In kind it is cell-based, human. The protocol: M10, WI38, SKBR3, and MDA-MB-231 cells (1×10^5 cells/ml) dispensed in 96-well plates were incubated with vehicle or test compounds (Q2-3) for 24 h or 72 h in corresponding basal medium in a 5% CO2 incubator. To evaluate the effect of secreted IL-25 from Q2-3-treated fibroblasts on growth activity of mammary tumor cells, 4T1 and MDA-MB-231 cells (1×10^4 cells/ml) dispensed in 96-well plates were incubated with control medium or different fibroblast conditioned media (200 μl/ml) which was changed daily for 5 days. All treatments were performed in triplicate cell cultures. The growth activity of cells was assayed using a 3-(4, 5-dimethythiazol-2-yl)-2, 5-diphenyl tetrazolium bromide (MTT; Sigma-Aldrich) colorimetric method. The absorbance at 570 nm (A570) was measured using a multiwall scanning spectrophotometer.
FIG. 1 is a schematic depiction of cytotoxic effects of dihydrobenzofuran lignan (Q2-3) on breast tumor cells. (a): Scheme for synthesis of Q2-3 (methyl (E)-3-[2-(3,4-dihydroxyphenyl)-7-hydroxy-3-methoxycarbonyl-2,3-dihydro-1-benzofuran-5yl]prop-2-enoate) from two caffeic acid methyl ester molecules. (b) and (c): MTT assays for cytotoxic effect of Q2-3 on SKBR3 (ER^−Her^+ human breast cancer cell line), MDA-MB-231 (ER^−Her^− human breast cancer cell line), M10 (human normal epithelial cell line) and WI38 (human lung fibroblast cell line). 2×10^4 cells were seeded and compared for their growth activity after treatment with Q2-3 for 24 or 72 h. The beginning cytotoxic dosage of Q2-3 was detected at 0.3 μM, with >50% kill rate on SKBR3 and MDA-MB-231 cells.
The effects of Q2-3 on cell viability were tested on four different cell lines, i.e., normal human mammary epithelial (M10), normal human […] (WI38), and two human mammary tumor cells (SKBR3 and MDA-MB-231), by treating cells with Q2-3 at various concentrations for 24 h (FIG. 1b) and 72 h (FIG. 1c).
(In general: Tetrazolium assays rely on reduction of a dye to a coloured formazan, in cell work by metabolically active cells.)

Series [1] relates to myeloid derived suppressor cells (MDSCs). As to the kind of experiment: Flow cytometry of MDSCs in lung tissue, 4T1 tumor resection model. Format: in vivo, mice. As to conditions: 10 μg/kg, 3 weeks post tumor resection. The protocol: BALB/c mice were subcutaneously injected with 4T1-Luc2 cells (5×10^5/100 μl PBS/mouse) into the fourth mammary fat pad under isoflurane anesthesia. Tumor growth was monitored by measuring the tumor volume according to the formula: volume=length×(width)^2/2. After tumors were established (180-200 mm^3) on day 14, test mice were divided into different groups (8 mice/group) and subjected to different treatments. At 15 days post tumor cell implantation, primary 4T1 tumors in situ were surgically removed by a tumor resection process. For drug treatment, mice were administered with different agents, including vehicle-control (PBS), mouse IL-25 protein (10 μg/kg, ProSpec, Vineland, N.J.), Q2-3 (2, 20 or 100 μg/kg) or docetaxel (2 mg/kg; Sigma-Aldrich), by intravenous injection for 3 weeks (3 injections/week) post tumor resection. […] Bioluminescence signals from the 4T1-luc2 tumor cells in test mice were analyzed using a non-invasive IVIS imaging system (Calipers, Hopkinton, Mass.) after intraperitoneal injection of 150 mg/kg D-luciferin (NanoLight technology, Pinetop, Ariz.). […]
Suppressive effects of Q2-3 on in vivo expansion of MDSC populations were also evaluated for both the monocytic (CD11b^+Ly6C^+) and granulocytic (CD11b^+Ly6G^+) subsets of MDSCs. The populations of these two MDSC cell types in lung tissues of test mice were analyzed and compared at 3 weeks post tumor resection.

What is called inhibition is the percentage by which the read-out fell short of the control. Regarding `COC(=O)/C=C/c1cc(O)c2c(c1)C(C(=O)OC)C(c1ccc(O)c(O)c1)O2` (centres unmarked) [Q2-3, methyl(E)-3-[2-(3,4-dihydroxyphenyl)-7-hydroxy-3-methoxycarbonyl-2,3-dihydro-1-benzofuran-5yl]-prop-2-enoate], the inhibition at 0.5 µM in the series with SKBR3 cells (Homo sapiens, SK-BR-3, ≥0.5 μM, 24 h and 72 h, vs 0.1% DMSO control, read-out: growth inhibition) was at least 60%. Besides, the kill rate in the series with SKBR3 cells (at 0.3 μM) is on record as over 50%. The beginning cytotoxic dosage in the series on SKBR3 cells (treatment 24 or 72 h) is 0.3 µM. In addition, the “monocytic CD11b+Ly6C+ MDSC population in lung tissue” value in series [1] (PBS control 0.9%) is 0.4%. Besides, the “granulocytic CD11b+Ly6G+ MDSC population in lung tissue” value in series [1] (PBS control 42.9%) turned out to be 12.5%.

The values above are taken from patent publication US11207289B2, “Use of benzofuran lignans to induce IL-25 expression and suppress mammary tumor metastasis” (ACADEMIA SINICA, priority 2016, dated 2021).
